Source: ChEMBL document CHEMBL1155959, “Inhibitory effects of polymethoxy flavones isolated from Citrus reticulate on degranulation in rat basophilic leukemia RBL-2H3: enhanced inhibition by their combination” (Bioorg Med Chem, 2008)
The source made the active and inactive calls. The calls are words filed in the database; no cut-off is given here.

Assays:
[1] = test system: Radical scavenging activity; assay: Antioxidant activity assessed as DPPH radical scavenging activity; type: functional
[2] = test system: RBL-2H3; assay: Effect on antigen-stimulated intracellular ROS production in IgE-sensitized CM-H2DCF-DA-treated rat RBL-2H3 cells assessed as increase in 2',7'-dichlorofluorescein oxidation at 50 uM after 30 mins in presence of dinitrophenylated bovine serum albumin; type: functional, cell-based
[3] = molecular target: Tyrosine-protein kinase Lyn (Rattus norvegicus) (UniProt Q07014); assay: Inhibition of Lyn phosphorylation in antigen-stimulated rat RBL-2H3 cells at 50 uM by Western blot analysis in presence of dinitrophenylated bovine serum albumin; type: cell-based
Chain of Tyrosine-protein kinase Lyn (Rattus norvegicus) (Q07014 whole entry): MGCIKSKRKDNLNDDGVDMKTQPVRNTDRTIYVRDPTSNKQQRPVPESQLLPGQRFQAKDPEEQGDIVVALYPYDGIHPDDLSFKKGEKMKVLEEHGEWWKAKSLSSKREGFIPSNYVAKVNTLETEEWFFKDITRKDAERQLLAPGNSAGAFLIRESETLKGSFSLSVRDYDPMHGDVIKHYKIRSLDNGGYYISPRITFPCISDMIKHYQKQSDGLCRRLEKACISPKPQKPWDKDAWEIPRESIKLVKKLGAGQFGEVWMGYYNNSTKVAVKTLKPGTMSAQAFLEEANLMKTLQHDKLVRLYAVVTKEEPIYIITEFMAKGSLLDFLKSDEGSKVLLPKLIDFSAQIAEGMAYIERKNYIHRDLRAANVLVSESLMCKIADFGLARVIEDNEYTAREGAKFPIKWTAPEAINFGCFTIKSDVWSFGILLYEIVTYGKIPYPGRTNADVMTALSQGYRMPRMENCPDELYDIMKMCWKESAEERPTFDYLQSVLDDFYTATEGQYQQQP

[4] = molecular target: Tyrosine-protein kinase SYK (Rattus norvegicus) (UniProt Q64725); assay: Inhibition of Syk phosphorylation in antigen-stimulated rat RBL-2H3 cells at 50 uM by Western blot analysis in presence of dinitrophenylated bovine serum albumin; type: cell-based
Chain of Tyrosine-protein kinase SYK (Rattus norvegicus) (Q64725 whole entry, looked up): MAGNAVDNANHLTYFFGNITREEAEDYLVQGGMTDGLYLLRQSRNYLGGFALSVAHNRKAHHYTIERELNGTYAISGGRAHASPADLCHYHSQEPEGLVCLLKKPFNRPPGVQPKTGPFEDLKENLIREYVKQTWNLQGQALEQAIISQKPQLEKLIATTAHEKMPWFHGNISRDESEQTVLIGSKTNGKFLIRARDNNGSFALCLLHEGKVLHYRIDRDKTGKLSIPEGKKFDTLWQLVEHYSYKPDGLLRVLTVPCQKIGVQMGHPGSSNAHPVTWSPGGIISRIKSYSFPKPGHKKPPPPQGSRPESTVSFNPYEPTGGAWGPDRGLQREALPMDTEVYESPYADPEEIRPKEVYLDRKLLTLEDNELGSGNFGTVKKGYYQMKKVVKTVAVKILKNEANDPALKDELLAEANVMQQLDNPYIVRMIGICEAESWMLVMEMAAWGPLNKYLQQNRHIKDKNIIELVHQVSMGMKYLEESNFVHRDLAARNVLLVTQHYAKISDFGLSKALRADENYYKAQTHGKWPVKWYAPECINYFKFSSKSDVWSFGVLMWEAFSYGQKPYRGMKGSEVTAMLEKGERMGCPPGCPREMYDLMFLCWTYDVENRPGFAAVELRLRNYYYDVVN

[5] = molecular target: T1, 1-phosphatidylinositol 4,5-bisphosphate phosphodiesterase gamma-1 (Rattus norvegicus) (UniProt P10686); assay: Inhibition of PLC-gamma-1/gamma-2 phosphorylation in antigen-stimulated rat RBL-2H3 cells at 50 uM by Western blot analysis in presence of dinitrophenylated bovine serum albumin; type: cell-based
T1 sequence (whole entry): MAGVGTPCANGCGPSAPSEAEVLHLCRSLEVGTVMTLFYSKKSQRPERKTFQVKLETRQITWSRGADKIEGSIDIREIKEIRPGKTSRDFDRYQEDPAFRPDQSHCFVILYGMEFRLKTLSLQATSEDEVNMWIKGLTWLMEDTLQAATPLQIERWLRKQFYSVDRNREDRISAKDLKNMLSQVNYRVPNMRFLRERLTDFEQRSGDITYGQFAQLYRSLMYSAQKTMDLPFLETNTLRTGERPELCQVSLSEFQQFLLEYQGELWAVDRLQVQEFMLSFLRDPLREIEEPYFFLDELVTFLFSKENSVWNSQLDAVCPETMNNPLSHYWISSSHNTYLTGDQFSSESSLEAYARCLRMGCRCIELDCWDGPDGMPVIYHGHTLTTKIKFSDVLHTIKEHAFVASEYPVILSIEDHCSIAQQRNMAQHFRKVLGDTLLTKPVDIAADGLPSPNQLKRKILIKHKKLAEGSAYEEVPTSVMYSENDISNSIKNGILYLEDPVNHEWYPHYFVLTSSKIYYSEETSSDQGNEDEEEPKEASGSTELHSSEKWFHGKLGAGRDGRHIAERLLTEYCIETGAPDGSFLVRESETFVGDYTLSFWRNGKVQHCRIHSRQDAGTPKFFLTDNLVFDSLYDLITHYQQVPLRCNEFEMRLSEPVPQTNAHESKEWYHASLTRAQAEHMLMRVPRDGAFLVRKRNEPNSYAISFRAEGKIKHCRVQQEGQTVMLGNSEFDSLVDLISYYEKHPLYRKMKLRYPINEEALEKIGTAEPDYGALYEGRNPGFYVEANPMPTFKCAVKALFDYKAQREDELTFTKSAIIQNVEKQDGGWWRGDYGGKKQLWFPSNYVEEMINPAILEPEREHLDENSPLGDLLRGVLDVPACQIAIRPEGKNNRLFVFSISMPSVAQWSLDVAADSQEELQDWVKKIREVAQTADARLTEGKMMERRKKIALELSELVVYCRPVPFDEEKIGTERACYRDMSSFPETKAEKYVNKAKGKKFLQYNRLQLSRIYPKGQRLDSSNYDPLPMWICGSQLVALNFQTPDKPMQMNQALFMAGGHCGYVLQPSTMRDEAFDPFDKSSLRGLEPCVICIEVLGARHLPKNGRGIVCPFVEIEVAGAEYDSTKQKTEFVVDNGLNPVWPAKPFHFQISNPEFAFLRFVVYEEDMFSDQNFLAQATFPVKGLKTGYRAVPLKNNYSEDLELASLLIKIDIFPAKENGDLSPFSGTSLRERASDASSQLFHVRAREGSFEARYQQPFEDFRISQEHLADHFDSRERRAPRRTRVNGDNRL

[6] = molecular target: Mitogen-activated protein kinase 1 and 3 (ERK2 and ERK1) (Rattus norvegicus) (UniProt P63086+P21708); assay: Inhibition of ERK1/2 phosphorylation in antigen-stimulated rat RBL-2H3 cells at 50 uM by Western blot analysis in presence of dinitrophenylated bovine serum albumin; type: cell-based
Chain of Mitogen-activated protein kinase 1 and 3 (ERK2 and ERK1) (Rattus norvegicus) (P21708 whole entry, looked up): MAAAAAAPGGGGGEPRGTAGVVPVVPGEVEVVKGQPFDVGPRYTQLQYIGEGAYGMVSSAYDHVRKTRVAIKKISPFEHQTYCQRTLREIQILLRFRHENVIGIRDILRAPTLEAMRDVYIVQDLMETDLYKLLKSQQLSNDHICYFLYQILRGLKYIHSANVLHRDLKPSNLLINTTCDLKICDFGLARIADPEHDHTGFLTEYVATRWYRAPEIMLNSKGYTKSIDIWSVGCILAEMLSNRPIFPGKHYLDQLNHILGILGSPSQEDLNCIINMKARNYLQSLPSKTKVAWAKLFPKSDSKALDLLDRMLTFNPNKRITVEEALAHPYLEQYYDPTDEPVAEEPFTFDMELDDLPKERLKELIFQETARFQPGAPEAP
Chain of Mitogen-activated protein kinase 1 and 3 (ERK2 and ERK1) (Rattus norvegicus) (P63086 whole entry, looked up): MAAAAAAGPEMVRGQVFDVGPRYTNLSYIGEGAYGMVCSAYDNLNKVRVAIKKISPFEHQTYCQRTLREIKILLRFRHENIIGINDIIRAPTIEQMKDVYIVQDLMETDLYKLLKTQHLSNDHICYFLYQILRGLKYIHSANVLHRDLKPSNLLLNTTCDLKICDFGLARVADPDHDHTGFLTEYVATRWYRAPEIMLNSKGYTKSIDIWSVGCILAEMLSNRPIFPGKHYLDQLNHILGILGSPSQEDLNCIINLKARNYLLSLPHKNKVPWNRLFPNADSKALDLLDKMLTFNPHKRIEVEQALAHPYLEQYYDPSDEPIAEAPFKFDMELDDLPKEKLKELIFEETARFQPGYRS

[7] = molecular target: Mitogen-activated protein kinase 8 (Rattus norvegicus) (UniProt P49185); assay: Inhibition of JNK1/2 phosphorylation in antigen-stimulated rat RBL-2H3 cells at 50 uM by Western blot analysis in presence of dinitrophenylated bovine serum albumin; type: cell-based
Chain of Mitogen-activated protein kinase 8 (Rattus norvegicus) (P49185 whole entry): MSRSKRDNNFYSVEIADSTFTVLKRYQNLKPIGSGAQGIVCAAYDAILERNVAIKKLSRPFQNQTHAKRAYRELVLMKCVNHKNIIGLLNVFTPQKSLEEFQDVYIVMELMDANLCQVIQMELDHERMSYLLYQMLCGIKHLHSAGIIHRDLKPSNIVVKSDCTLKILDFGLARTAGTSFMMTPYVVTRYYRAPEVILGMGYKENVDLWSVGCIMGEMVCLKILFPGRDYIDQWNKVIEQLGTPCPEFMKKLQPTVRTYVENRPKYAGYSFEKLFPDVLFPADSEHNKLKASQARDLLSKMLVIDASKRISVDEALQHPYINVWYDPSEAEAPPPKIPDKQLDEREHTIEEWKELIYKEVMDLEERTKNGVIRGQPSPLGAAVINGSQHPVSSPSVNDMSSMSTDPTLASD

[8] = test system: RBL-2H3; assay: Inhibition of p38 MAPK phosphorylation in antigen-stimulated rat RBL-2H3 cells at 50 uM by Western blot analysis in presence of dinitrophenylated bovine serum albumin; type: cell-based
[9] = test system: RBL-2H3; assay: Suppression of degranulation in IgE-sensitized rat RBL-2H3 cells assessed as inhibition of antigen-stimulated histamine release after 30 mins in presence of dinitrophenylated bovine serum albumin; type: functional, cell-based
[10] = test system: RBL-2H3; assay: Suppression of degranulation in IgE-sensitized rat RBL-2H3 cells assessed as inhibition of A-23187-stimulated histamine release after 30 mins; type: functional, cell-based
[11] = test system: RBL-2H3; assay: Inhibition of degranulation in IgE-sensitized rat RBL-2H3 cells assessed as inhibition of antigen-stimulated intracellular calcium elevation after 30 mins in presence of dinitrophenylated bovine serum albumin; type: functional, cell-based

How did the ED50 [1] turn out when VITAMIN E was run?
Its ED50 is 78 µM.

Which ED50 [1] does the source give for `O=C1O[C@H]([C@@H](O)CO)C(O)=C1O` here?
Its ED50 is 18 µM.

What does the source list for `COc1ccc(-c2cc(=O)c3c(O)c(OC)c(OC)cc3o2)cc1OC`?
Activity [2]: Active; ED50 [1]: < 100 µM; Activity [3]: inactive; Activity [4]: Active; Activity [5]: Active; Activity [6]: Active; Activity [7]: inactive; Activity [8]: inactive; Activity [9]: Dose-dependent effect; Activity [10]: Active; Activity [11]: Active

How did the Activity [2] turn out when `COc1ccc(OC)c(-c2cc(=O)c3c(OC)c(OC)cc(OC)c3o2)c1` was run?
The Activity was “Active”.

What about the ED50 [1] of the same compound?
The ED50 was under 100 µM.

What about the Activity [3] of the same compound?
Its Activity is “inactive”.

And the Activity [4]?
Its Activity is “Active”.

And the Activity [5]?
Its Activity is “Active”.

And the Activity [6]?
The Activity was “Active”.

And the Activity [7]?
Its Activity is “inactive”.

And the Activity [8]?
Its Activity is “inactive”.

And the Activity [9]?
Its Activity is “Dose-dependent effect”.

What about the Activity [10] of the same compound?
The Activity was “Active”.

What about the Activity [11] of the same compound?
The Activity was “Active”.

With `COc1cc(-c2cc(=O)c3c(OC)c(OC)c(OC)cc3o2)cc(OC)c1OC` as the compound, how does the Activity [2] read?
The Activity was “Active”.

What about the ED50 [1] of the same compound?
The ED50 was under 100 µM.

And the Activity [3]?
Its Activity is “inactive”.

What about the Activity [4] of the same compound?
Its Activity is “Active”.

What about the Activity [5] of the same compound?
Its Activity is “Active”.

What about the Activity [6] of the same compound?
The Activity was “Active”.

What about the Activity [7] of the same compound?
Its Activity is “inactive”.

And the Activity [8]?
The Activity was “inactive”.

And the Activity [9]?
The Activity was “Dose-dependent effect”.

And the Activity [10]?
The Activity was “Active”.

What about the Activity [11] of the same compound?
Its Activity is “inactive”.

For `O=C(O[C@@H]1Cc2c(O)cc(O)cc2O[C@@H]1c1cc(O)c(O)c(O)c1)c1cc(O)c(O)c(O)c1`, which ED50 [1] is on record?
The ED50 was 7 µM.
